Legend:
Rho = Rho activation assay (Rho.GTP-binding domain of Rhotekin); assay type: cell-based, human; conditions: 250 nmol/L
Text: Cells were lysed and equal amounts of proteins were subjected to pulldown assays using the p21-binding domain of PAK to isolate the GTP bound Rac1 or Cdc42. […] Top, Pulldown showing GTP bound Rac1; Middle, Total Rac1 in lysates; Bottom, Actin as a loading control. B, Right, Results from positive bands in Western blots quantified using ImageJ. […] Top band, Rac1B.GTP from the pulldown; Middle band, Total Rac1B from cell lysates; Bottom band, Actin (N = 3). […] Top, Pulldown showing GTP bound Cdc42; Middle, Total Cdc42 in lysates; Bottom, Actin as a loading control. E, Right, Results from positive bands in Western blots quantified using ImageJ. […] (n = 3–4; *, P < 0.05; **, P < 0.01; ns, not significant). Error bars represent SEM. […] Rho activation assay was done using the Rho.GTP-binding domain of Rhotekin. […] Cells were lysed and Western blotted for total and active PAK. Left, Top, Cell lysates probed with an anti PAK1/2/3 antibody; second, Western blot analysis with anti phospho (p)-PAK (1/2/3)^Ser141,144,154; third, Western blot analysis with p-PAK (1/2/3)^Thr423; fourth, Anti actin. H, Fold change in p-PAK/PAK for PAK 1/3 (68 kD) for total p-PAK^Ser141,144,154 and p-PAK^Thr423. (n = 3; **, P < 0.01; ***, P < 0.001; ns, not significant). […] Tumor lysates were Western blotted with antibodies specific for Rac1, Cdc42, PAK1/2/3, p-PAK (1/2/3)^Ser141,144,154, or p-PAK^Thr423. […]

MDA-MB-231 cells = assay: Phalloidin staining of F-actin, cell phenotype; assay type: cell-based, human; conditions: 250 nmol/L, 12 hours
Text: Cells were fixed, permeabilized, and stained with rhodamine phalloidin to visualize F-actin as described previously ([23]). Fluorescence micrographs were acquired at 40× in a Keyence fluorescence microscope.

MCF7 breast cancer cells = assay: Cell viability (MTT) assay; assay type: cell-based, human; conditions: 250 nmol/L, 120 hr
Procedure: (§1) Using CellTiter 96 Non-Radioactive Cell Proliferation Assay (Promega, Corp.) according to manufactures’ instructions, formazan was used as an indicator of viable cells at an absorbance 570 nm in a Tecan Microplate Reader M100 (Tecan). Data were calculated as fold change from vehicle and transformed to logarithm base 10. 0 concentration was replaced with 1 nmol/L to fit using the 4-parameter logic nonlinear regression model in GraphPad Prism software. (n = 3 biologic replicates: with three technical replicates each).
Supplementary Figure S1. Percentage cell viability of MDA-MB-231, GFP-HER2-BM, […]
nM for 120 hr. The bar graphs are presented as individual fold change data points from vehicle and grouped mean ± SEM. (n = 3; *, P < 0.05; ** P < 0.01).
(1 picture or pasted object on this page, not shown here)

HMEC cells = assay: Cell viability (MTT) assay; assay type: cell-based, human; conditions: 120 hours, 0 to 1,000 nmol/L
Procedure: as §1

Cdc42 [1] = molecular target: T1, Cdc42 (Homo sapiens, UniProt P60953); assay: Nucleotide association assay, catalyzed by Dbs; assay type: biochemical; set-up: purchased Cytoskeleton, Inc; conditions: 2 or 10 μmol/L, N-MAR-GTP
T1 sequence (P60953 whole entry): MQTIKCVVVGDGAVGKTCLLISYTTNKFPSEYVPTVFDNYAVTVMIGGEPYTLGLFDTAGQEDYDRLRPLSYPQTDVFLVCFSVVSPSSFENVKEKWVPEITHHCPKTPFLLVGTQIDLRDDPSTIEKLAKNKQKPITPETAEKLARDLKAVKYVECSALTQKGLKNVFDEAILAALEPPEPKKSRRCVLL
Procedure: (§2) The nucleotide loading on purified Rho GTPases was monitored using a fluorophore-based Rho GEF Exchange Assay Kit as per manufacturer's instructions (Cytoskeleton, Inc.). Drugs were diluted in exchange buffer and incubated with Rac1, Cdc42, or RhoA. The uptake of fluorescent nucleotide analog N-methylanthraniloyl-GTP (N-MAR-GTP) was measured as an increase in fluorescence due to binding to the nucleotide binding pocket of a GTPase. The fluorimeter was set at 20°C on kinetic mode and N-MAR GTP was detected at […]. After the initial five readings (T0), GEFs (Dbs or Vav2) or Ethylenediaminetetraacetic acid (EDTA) was added to stimulate exchange and readings were obtained every 30 seconds for at least 60 cycles.

A549 lung cancer cells = assay: EGF-induced ruffle formation; assay type: cell-based, human; conditions: 24 hours, then EGF 200 ng/mL; for loss in ruffles: 500 nmol/L; for decrease in ruffles: 1,000 nmol/L
Procedure: Cells were fixed with 4% formaldehyde and F-actin stained with rhodamine phalloidin. Slides were visualized by fluorescence microscopy and five random fields were scored for the number of ruffles. Ruffle area was measured by thresholding for single intensity using ImageJ/Fiji software, as in ref. [29].

[2] = system: GFP-HER2-BM mammary fatpad tumors; assay: Orthotopic spontaneous metastasis mouse model; assay type: in vivo; conditions: for weight and liver toxicity (aspartate transaminase and alanine transaminase from plasma): 5× a week at 5 mg/kg for 53 days
Procedure: All animal studies were conducted under approved protocol A8180118 Institutional Animal Care and Use Committee, in accordance with the NIH Guideline for the Care and Use of Laboratory Animals. Female SCID mice, 3–4 weeks old (Charles River Laboratories, Inc.), were maintained under pathogen-free conditions in High Efficiency Particulate Air (HEPA)-filtered cages.
GFP-HER2-BM (∼7 × 10^5) cells in Matrigel (BD Biosciences) were injected at the fourth right mammary fat pad under isoflurane inhalation (1%–3% in oxygen using an inhalation chamber at 2 L/minute) to produce orthotopic primary tumors. After tumor establishment (1-week after inoculation), animals were randomly divided into treatment groups (n = 5).
[…]. Treatments continued until sacrifice at day 53.
Mammary tumor growth was quantified by integrated density of GFP fluorescence. After tumor establishment, mice were imaged before starting treatment, and once a week thereafter for 53 days, using the iBoxScientia (Analytik-Jena GmbH). Tumor fluorescence intensities were analyzed using ImageJ software (NIH, Bethesda, MD). Relative tumor growth was calculated as the integrated density of fluorescence of each tumor on each day of imaging relative to the integrated density of fluorescence of the same tumor on day 1 of treatment. After sacrifice at day 60, lungs, kidneys, livers, and spleens were excised and immediately stored in liquid N2. To quntify metastasis, stored organs were thawed and analyzed, as whole organs on both sides, using an Olympus MV10 fluorescence macro zoom system microscope and images acquired with an Olympus DP71 digital camera. The fluorescent lesions (green component of RGB images) were quantified for integrated density of fluorescent pixels using Image J software.

Cdc42 [3] = molecular target: T1, Cdc42; assay: Nucleotide association assay, induced by EDTA; assay type: biochemical; set-up: purchased Cytoskeleton, Inc; conditions: for EDTA-induced nucleotide loading of N-MAR-GTP on Cdc42: 2 and 10 μmol/L
Procedure: as §2

[4] = 5 mg/kg BW, intraperitoneal, 53 days

| SMILES | Rho activation (Rho) | cell phenotype, actin cytoskeleton (MDA-MB-231 cells) | inhibition of cell viability (MCF7 breast cancer cells) | effect on viability of HMECs (HMEC cells) | inhibition of GTP loading on Cdc42 catalyzed by Dbs (Cdc42 [1]) | loss in ruffles (A549 lung cancer cells) | decrease in ruffles (A549 lung cancer cells) | inhibition in tumor growth compared with vehicle [2, 4] | inhibition of lung, liver, and kidney metastases compared with vehicle [2, 4] | weight and liver toxicity (aspartate transaminase and alanine transaminase from plasma) [2] | EDTA-induced nucleotide loading of N-MAR-GTP on Cdc42 (Cdc42 [3]) | inhibition at 10 µM (Cdc42 [3]; 10 μmol/L, N-MAR-GTP, read-out: inhibition of EDTA-induced GTP exchange on Cdc42) |
| --- | --- | --- | --- | --- | --- | --- | --- | --- | --- | --- | --- | --- |
| CCn1c2ccccc2c2cc(-n3nncc3-c3ccccc3)ccc21 [MBQ-167] | do not affect | acquired a round shape with punctate actin staining | 40% | did not affect the viability of HMECs | did not affect | 54% | 63% | approximately 90% | approximately 90% | did not significantly change weight or liver toxicity | inhibited the nucleotide loading of N-MAR-GTP at 10 μmol/L | – |
| CCn1c2ccccc2c2cc(-n3nncc3-c3cccc(OC)c3)ccc21 [MBQ-168] | do not affect | acquired a round shape with punctate actin staining | 40% | did not affect the viability of HMECs | 10%–20% | 67% | 79% | approximately 90% | – | did not significantly change weight or liver toxicity | reduced nucleotide loading at both 2 and 10 μmol/L | 100% |

— PMC9970268 (Cancer Research Communications, 2022)
